The source of these data is patent US20210130308A1, “MODULATORS OF EUKARYOTIC INITIATION FACTOR 2” (Denali Therapeutics Inc., priority 2018, published 2021).

Some results are limits rather than exact numbers.

The subject of the test is ATF4 translation (ISR pathway activation). The test can be described thus: ATF4 Nano Luciferase reporter integrated stress response (ISR) assay in H4 ATF4-NLuc (clone 17) cells. The format is cell-based, human. To be noted: Homo sapiens, 0.5 h; H4 ATF4-NLuc (clone 17) cells; compounds 30 minutes at 37 degree Celsius, then 50 um sodium arsenite for 6 additional hours; luminescence readout; read-out: IC50. The procedure, abridged:
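H4 cells stably carrying an ATF4 5′-UTR (+1 to +364)–NanoLuc fusion reporter (clone 17), in DMEM + 10% FBS, preincubated with compound 30 min at 37 °C. ISR then induced with 50 um sodium arsenite for 6 h; inhibition measured as NanoLuc luminescence, expressed as IC50.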
(A reporter such as luciferase makes a cellular process visible.)

Take `O=C(COc1ccc(Cl)c(F)c1)NC12CC(NC(=O)CO[C@H]3C[C@@H](OC(F)(F)F)C3)(C1)C2` [Example 37, 2-(4-chloro-3-fluoro-phenoxy)-N-[3-[[2-[3-cis-(trifluoromethoxy)cyclobutoxy]acetyl]amino]-1-bicyclo[1.1.1]pentanyl]acetamide]: the IC50 is less than 1000 nM. The same measure for `O=C(COc1ccc(Cl)c(F)c1)NC12CC(NC(=O)COC3CC(C(F)(F)F)C3)(C1)C2` (single isomer, unassigned) [12 (first eluting isomer), 2-(4-chloro-3-fluorophenoxy)-N-(3-(2-(3-(trifluoromethyl)cyclobutoxy)acetamido)bicyclo[1.1.1]pentan-1-yl)acetamide]: less than 1000 nM.

Broadly, the IC50 is the concentration needed to halve the response being measured.
